In patent US20040077674A1, “Mappicine analogs, intermediates in the synthesis of mappicine analogs and methods of synthesis of mappicine analogs” (priority 2002, published 2004):

Experiments:
[1] = molecular target: T1, RNA-dependent DNA polymerase activity of HIV reverse transcriptase (Human immunodeficiency virus type 1 group M subtype B, UniProt P03366); test: RNA-dependent DNA polymerase activity assay of HIV reverse transcriptase; assay type: biochemical, HIV-1; conditions: 10 μM inhibitor concentration; activity in presence / in absence of analog x 100
T1 construct: made in house
Method: In separate representative assays, mappicine analogs were tested for their ability to inhibit the RNA-dependent DNA polymerase activity of HIV reverse transcriptase and for their ability to inhibit the RNase H activity of HIV reverse transcriptase. The assay for RNA-dependent DNA polymerase activity is discussed in Borkow, G. et al., “Inhibition of the Ribonuclease H and DNA Polymerase Activities of HIV-1 Reverse Transcriptase by N-(4-tert-Butylbenzoyl)-2-hydroxy-1-naphthaldehyde Hydrazone,” Biochemistry 1997, 36, 3179-3185, a copy of which is attached hereto and the disclosure of which is incorporated herein by reference. Assays were carried out in the absence and in the presence of mappicine analogs (10 μM final concentration). The results are reported as % residual activity, which is the RNA-dependent DNA polymerase activity of the enzyme in the presence of the mappicine analog divided by the RNA-dependent activity of the enzyme in the absence of the mappicine analog, multiplied by 100.

[2] = molecular target: T2, RNase H activity of HIV reverse transcriptase (Human immunodeficiency virus type 1 group M subtype B, UniProt P03366); test: Fluorescence (FRET)-based RNase H assay of HIV reverse transcriptase; assay type: biochemical, HIV-1; conditions: for Residual activity (%) RNase H: 10 μM inhibitor concentration, activity in presence / in absence of analog x 100; for % inhibition of RNase H at 20 μM: 20 μM inhibitor concentration
T2 construct: 2.5 nM of the p51/p66 RT heterodimer in the assay; made in house
Method: Recently, a fluorescence-based assay to perform screens in search of HIV RNase H inhibitors has been developed. The assay, which is carried out in 96-well microplates and is adaptable to robotics, is the first high-throughput screen for RNase H and is described in further detail in the Experimental section. HIV-1 RT and human RNase H were cloned, and thus comparative analysis of inhibitor action could be conducted simultaneously.
The assay for RNase H activity of HIV reverse transcriptase was the fluorescence-based assay described in detail in the Experimental section and discussed in U.S. Provisional Patent Application Serial No. 60/318,359. Assays were carried out in the absence and in the presence of mappicine analogs (10 μM or 20 μM final concentration). The results are reported as % residual activity, which is the RNase H activity of the enzyme in the presence of the mappicine analog divided by the RNase H activity of the enzyme in the absence of the mappicine analog, multiplied by 100. Alternatively, the results are reported as % inhibition, which is calculated as the ratio of the RNase H activity of the enzyme in the presence of the mappicine analog to the enzyme activity in the absence of the mappicine analog, multiplied by 100, and then subtracting this number from 100.
Assay for Ribonuclease H Activity Based on Fluorescence Resonance Energy Transfer (FRET)
Preparation of the Fluorophore-RNA/Quencher-DNA Hybrid Duplex Substrate.
The RNA/DNA hybrid duplex substrate for use in the assay comprises an RNA oligonucleotide of sequence 5′-GAU CUG AGC CUG GGA GCU-3′, modified at the 3′-end with Aminolink-2 and derivatized with fluorescein isothiocyanate, to provide a modified RNA oligonucleotide of the sequence 5′-GAU CUG AGC CUG GGA GCU-fluorescein-3′, annealed to a complementary DNA oligonucleotide of the sequence 5′-AGC TCC CAG GCT CAG ATC-3′ modified at the 5′-end with Aminolink-2 and derivatized with the FRET acceptor DABCYL succinimidyl ester, to provide a modified DNA oligonucleotide of the sequence 5′-DABCYL-AGC TCC CAG GCT CAG ATC-3′.
To prepare the 3′-fluorescein-RNA/5′-DABCYL-DNA hybrid duplex substrate, a known amount of 3′-fluorescein-RNA was dissolved in 20 mM Tris buffer (pH 8.0, 37° C.) to provide a final concentration of 5 μM. Two equivalents of the 5′-DABCYL-DNA oligonucleotide were added, and the mixture was heated to 90° C. for 5 min and cooled slowly to room temperature to allow duplex formation. The positioning of the fluorescein donor at the 3′-end of the RNA oligonucleotide and the DABCYL acceptor at the 5′-end of the DNA oligonucleotide provides a very close proximity of the donor and acceptor that results in a very intense quenching of the fluorescein emission in the intact RNA/DNA hybrid duplex substrate due to the spectral overlap of the fluorescence emission of fluorescein with the absorption spectrum of DABCYL. In addition, DABCYL is non-fluorescent, and thus cannot contribute any light emission. Both of these factors result in a very low background and provide a high signal-to-noise in the assay measurements. The ratio of the donor fluorescence in the absence and in the presence of its quencher is approximately fifteen-fold.
Microplate Assay Protocol for the Measurement of RNase H Activity Using the RNA/IDNA Hybrid Duplex Substrate.
Reaction assay mixtures contained 5 μl of a stock solution of 2.5 μM RNA/DNA hybrid duplex substrate added to 85 μl of assay buffer (50 mM Tris, pH 8.0, 37° C., containing 60 mM KCl and 2.5 mM MgCl2), prepared in the wells of a 96-well fluorescence microtiter plate, and warmed to 37° C. using the temperature control of the SpectraMax Gemini XS microplate spectrofluorometer (Molecular Devices). Reactions were started by the addition of 5 μl of a solution of recombinant HIV-1 reverse transcriptase (usually providing a final concentration of 2.5 nM of the p51/p66 RT heterodimer in the assay), and mixing using the automatic mixing function of the microplate spectrofluorometer. […]

2-Acetoxy-12-ethyl-7-(1-hydroxypropyl)-8-methyl-1H-indolizino [1,2-b]quinolin-9-one [5 (AG 7M)]
Residual activity (%) Polymerase [1]: 99%
Residual activity (%) RNase H [2]: 63%

CCC(O)c1cc2n(c(=O)c1C)Cc1c-2nc2ccccc2c1-c1ccccc1 (stereo not drawn) [5 (3Aα)]
Residual activity (%) Polymerase [1]: 90%
Residual activity (%) RNase H [2]: 97%

CCC(=O)c1cc2n(c(=O)c1C)Cc1c-2nc2ccccc2c1-c1ccccc1 [5 (3Aακ)]
Residual activity (%) Polymerase [1]: 64%
Residual activity (%) RNase H [2]: 87%

Cc1c(C(O)C(C)(C)C)cc2n(c1=O)Cc1c-2nc2ccccc2c1-c1ccccc1 (stereo not drawn) [5 (3Aβ)]
Residual activity (%) Polymerase [1]: 54%
Residual activity (%) RNase H [2]: 95%

Cc1c(C(=O)C(C)(C)C)cc2n(c1=O)Cc1c-2nc2ccccc2c1-c1ccccc1 [5 (3Aβκ)]
Residual activity (%) Polymerase [1]: 64%
Residual activity (%) RNase H [2]: 94%

Cc1c(C(O)CCC2CCCCC2)cc2n(c1=O)Cc1c-2nc2ccccc2c1-c1ccccc1 (stereo not drawn) [5 (3Aδ)]
Residual activity (%) Polymerase [1]: 32%
Residual activity (%) RNase H [2]: 104%

Cc1c(C(=O)CCC2CCCCC2)cc2n(c1=O)Cc1c-2nc2ccccc2c1-c1ccccc1 [5 (3Aδκ)]
Residual activity (%) Polymerase [1]: 66%
Residual activity (%) RNase H [2]: 73%

Cc1c(C(O)Cc2ccccc2)cc2n(c1=O)Cc1c-2nc2ccccc2c1-c1ccccc1 (stereo not drawn) [5 (3Aε)]
Residual activity (%) Polymerase [1]: 34%
Residual activity (%) RNase H [2]: 99%

CCC(O)c1cc2n(c(=O)c1C)Cc1c-2nc2ccc(F)cc2c1-c1ccccc1 (stereo not drawn) [5 (3Bα)]
Residual activity (%) Polymerase [1]: 54%
Residual activity (%) RNase H [2]: 83%

CCC(=O)c1cc2n(c(=O)c1C)Cc1c-2nc2ccc(F)cc2c1-c1ccccc1 [5 (3Bακ)]
Residual activity (%) Polymerase [1]: 100%
Residual activity (%) RNase H [2]: 94%

Cc1c(C(O)C(C)(C)C)cc2n(c1=O)Cc1c-2nc2ccc(F)cc2c1-c1ccccc1 (stereo not drawn) [5 (3Bβ)]
Residual activity (%) Polymerase [1]: 78%
Residual activity (%) RNase H [2]: 75%

Cc1c(C(=O)C(C)(C)C)cc2n(c1=O)Cc1c-2nc2ccc(F)cc2c1-c1ccccc1 [5 (3Bβκ)]
Residual activity (%) Polymerase [1]: 61%
Residual activity (%) RNase H [2]: 95%

Cc1c(C(O)CCC2CCCCC2)cc2n(c1=O)Cc1c-2nc2ccc(F)cc2c1-c1ccccc1 (stereo not drawn) [5 (3Bδ)]
Residual activity (%) Polymerase [1]: 81%
Residual activity (%) RNase H [2]: 99%

Cc1c(C(=O)CCC2CCCCC2)cc2n(c1=O)Cc1c-2nc2ccc(F)cc2c1-c1ccccc1 [5 (3Bδκ)]
Residual activity (%) Polymerase [1]: 59%
Residual activity (%) RNase H [2]: 93%

Cc1c(C(O)Cc2ccccc2)cc2n(c1=O)Cc1c-2nc2ccc(F)cc2c1-c1ccccc1 (stereo not drawn) [5 (3Bε)]
Residual activity (%) Polymerase [1]: 28%
Residual activity (%) RNase H [2]: 91%

CCC(O)c1cc2n(c(=O)c1C)Cc1c-2nc2ccc(C)cc2c1-c1ccccc1 (stereo not drawn) [5 (3Cα)]
Residual activity (%) Polymerase [1]: 64%
Residual activity (%) RNase H [2]: 96%

CCC(=O)c1cc2n(c(=O)c1C)Cc1c-2nc2ccc(C)cc2c1-c1ccccc1 [5 (3Cακ)]
Residual activity (%) Polymerase [1]: 71%
Residual activity (%) RNase H [2]: 99%

Cc1ccc2nc3c(c(-c4ccccc4)c2c1)Cn1c-3cc(C(=O)C(C)(C)C)c(C)c1=O [5 (3Cβκ)]
Residual activity (%) Polymerase [1]: 63%
Residual activity (%) RNase H [2]: 96%

Cc1ccc2nc3c(c(-c4ccccc4)c2c1)Cn1c-3cc(C(=O)CCC2CCCCC2)c(C)c1=O [5 (3Cδκ)]
Residual activity (%) Polymerase [1]: 65%
Residual activity (%) RNase H [2]: 93%

Cc1ccc2nc3c(c(-c4ccccc4)c2c1)Cn1c-3cc(C(O)Cc2ccccc2)c(C)c1=O (stereo not drawn) [5 (3Cε)]
Residual activity (%) Polymerase [1]: 76%
Residual activity (%) RNase H [2]: 101%

CCC(O)c1cc2n(c(=O)c1C)Cc1c-2nc2ccc(OC)cc2c1-c1ccccc1 (stereo not drawn) [5 (3Dα)]
Residual activity (%) Polymerase [1]: 69%
Residual activity (%) RNase H [2]: 78%

CCC(=O)c1cc2n(c(=O)c1C)Cc1c-2nc2ccc(OC)cc2c1-c1ccccc1 [5 (3Dακ)]
Residual activity (%) Polymerase [1]: 76%
Residual activity (%) RNase H [2]: 104%

COc1ccc2nc3c(c(-c4ccccc4)c2c1)Cn1c-3cc(C(O)C(C)(C)C)c(C)c1=O (stereo not drawn) [5 (3Dβ)]
Residual activity (%) Polymerase [1]: 85%
Residual activity (%) RNase H [2]: 70%

COc1ccc2nc3c(c(-c4ccccc4)c2c1)Cn1c-3cc(C(O)CCC2CCCCC2)c(C)c1=O (stereo not drawn) [5 (3Dδ)]
Residual activity (%) Polymerase [1]: 60%
Residual activity (%) RNase H [2]: 67%

COc1ccc2nc3c(c(-c4ccccc4)c2c1)Cn1c-3cc(C(=O)CCC2CCCCC2)c(C)c1=O [5 (3Dδκ)]
Residual activity (%) Polymerase [1]: 81%
Residual activity (%) RNase H [2]: 97%

COc1ccc2nc3c(c(-c4ccccc4)c2c1)Cn1c-3cc(C(O)Cc2ccccc2)c(C)c1=O (stereo not drawn) [5 (3Dε)]
Residual activity (%) Polymerase [1]: 61%
Residual activity (%) RNase H [2]: 79%

COc1ccc2nc3c(c(-c4ccccc4)c2c1)Cn1c-3cc(C(=O)Cc2ccccc2)c(C)c1=O [5 (3Dεκ)]
Residual activity (%) Polymerase [1]: 73%
Residual activity (%) RNase H [2]: 88%

CCC(O)c1cc2n(c(=O)c1C)Cc1c-2nc2ccccc2c1[Si](C)(C)C(C)(C)C (stereo not drawn) [5 (4Aα)]
Residual activity (%) Polymerase [1]: 67%
Residual activity (%) RNase H [2]: 104%

CCC(=O)c1cc2n(c(=O)c1C)Cc1c-2nc2ccccc2c1[Si](C)(C)C(C)(C)C [5 (4Aακ)]
Residual activity (%) Polymerase [1]: 43%
Residual activity (%) RNase H [2]: 76%

Cc1c(C(O)C(C)(C)C)cc2n(c1=O)Cc1c-2nc2ccccc2c1[Si](C)(C)C(C)(C)C (stereo not drawn) [5 (4Aβ)]
Residual activity (%) Polymerase [1]: 71%
Residual activity (%) RNase H [2]: 101%

Cc1c(C(=O)C(C)(C)C)cc2n(c1=O)Cc1c-2nc2ccccc2c1[Si](C)(C)C(C)(C)C [5 (4Aβκ)]
Residual activity (%) Polymerase [1]: 79%
Residual activity (%) RNase H [2]: 70%

Cc1c(C(O)CCC2CCCCC2)cc2n(c1=O)Cc1c-2nc2ccccc2c1[Si](C)(C)C(C)(C)C (stereo not drawn) [5 (4Aδ)]
Residual activity (%) Polymerase [1]: 45%
Residual activity (%) RNase H [2]: 95%

CCCc1c2c(nc3c(F)cccc13)-c1cc(C(O)CCC3CCCCC3)c(C)c(=O)n1C2 (stereo not drawn) [Compound 7.5.8]
% inhibition of RNase H at 20 μM [2]: 82%

CCCCCc1c2c(nc3ccc(C(F)(F)F)cc13)-c1cc(C(O)CCC3CCCCC3)c(C)c(=O)n1C2 (stereo not drawn) [Compound 7.7.4]
% inhibition of RNase H at 20 μM [2]: 75%

CCc1ccc2nc3c(c(-c4ccccc4)c2c1)Cn1c-3cc(C(O)CCC2CCCCC2)c(C)c1=O (stereo not drawn) [Compound 7.8.5]
% inhibition of RNase H at 20 μM [2]: 65%

Cc1c(C(O)CCC2CCCCC2)cc2n(c1=O)Cc1c-2nc2ccc(Cl)cc2c1-c1ccccc1 (stereo not drawn) [Compound 7.8.6]
% inhibition of RNase H at 20 μM [2]: 90%

Cc1ccc2nc3c(c(-c4ccccc4)c2c1)Cn1c-3cc(C(O)CCC2CCCCC2)c(C)c1=O (stereo not drawn) [Compound 7.8.9]
% inhibition of RNase H at 20 μM [2]: 61%
